Measurements as given in US9181176B2, “7-[3,5-dihydroxy-2-(3-hydroxy-5-phenyl-pent-1-enyl)-cyclopentyl]-N-ethyl-hept-5-enamide (bimatoprost) in crystalline form II, methods for preparation, and methods for use thereof” (Allergan, Inc., priority 2009, dated 2015).

Assays:
Format in all cases: physicochemical
[1] = Solid-state polymorphic transformation in samples of the formal stability program (DSC, IR); conditions: stored 18 months at 25° C./60% RH
Protocol: The colored particle was separated from the white drug substance, and DSC was performed on both. In order to determine whether bimatoprost spontaneously converts from polymorph I to polymorph II at elevated temperatures (i.e. higher than the prescribed storage temperature), a number of other lots in the formal stability program were also analyzed by DSC. All the formal stability samples tested consisted of polymorph II. Since the control (frozen) samples from the same lots were previously analyzed by DSC with the results showing that none of them contained polymorph II, there is a clear indication that a polymorphic transformation had occurred under the stability conditions employed.

[2] = Solid-state polymorphic transformation in laboratory stress study samples (DSC); conditions: 40° C., 70-day time-point
Protocol: Two Bimatoprost lots (X11192 and X10510) were subjected to a variety of experimental stress conditions at 40° C. (see Table 6). The experimental design included ambient air and argon headspaces, exposure to fluorescent light, and different surface-to-volume ratios. The 70-day time-point samples were analyzed by HPLC and DSC.

[3] = Determination of the aqueous solubility of polymorph II; conditions: 0.4% suspension rotated continuously over a weekend; supernatants assayed by HPLC
Protocol: The aqueous solubility of polymorph II was determined by preparing in duplicate a 0.4% suspension of a formal stability sample (lot X10510 stored at 25° C./60% RH for 23 months, confirmed as polymorph II). Temperature Program 1 (hold for 1.0 minute at 30° C. and then heat from 30° C. to 85° C. at 2.0° C. per minute), was used to test the 23-month stability sample by DSC to reconfirm the presence of only polymorph II (which was, indeed, the case). The suspension was allowed to rotate continuously over a weekend. The supernatants were assayed by HPLC using X11192 Secondary Reference Standard to determine the drug contents. […] Since the active pharmaceutical ingredient will be used in a formulation at a concentration that is only one-tenth of the aqueous solubility of the active pharmaceutical ingredient (as either polymorph), there is no effect of crystal habit on product characteristics or manufacturing process.

**Q.** What does the source list for `CCNC(=O)CCC/C=C\C[C@@H]1[C@@H](/C=C/[C@@H](O)CCc2ccccc2)[C@H](O)C[C@@H]1O` [X10510, bimatoprost]?
**A.** polymorphic form after storage (DSC and IR) [1]: yielded substantial amounts of polymorph II; polymorphic form after stress (DSC) ([2]; ambient air headspace, regardless of light exposure): partial morphological conversion in which both polymorphs I and II were present simultaneously

**Q.** For `CCNC(=O)CCC/C=C\C[C@@H]1[C@@H](/C=C/[C@@H](O)CCc2ccccc2)[C@H](O)C[C@@H]1O` [X11192, bimatoprost], which “polymorphic form after stress (DSC)” value ([2]; air or argon headspace, light or dark) is on record?
**A.** The value was “polymorph I”.

**Q.** For `CCNC(=O)CCCC=CCC1C(O)CC(O)C1C=CC(O)CCc1ccccc1` (stereo not shown) [polymorph II, 7-[3,5-dihydroxy-2-(3-hydroxy-5-phenyl-pent-1-enyl)-cyclopentyl]-N-ethyl-hept-5-enamide], which aqueous solubility [3] is on record?
**A.** Its aqueous solubility is 0.3 % w/w.
